Experimental findings from patent publication US20260042762A1 (Kymera Therapeutics, Inc., priority 2018, published 2026) are described below.

For the first test, the target named is T1, MerTK (Homo sapiens, UniProt Q12866).
T1 construct: endogenous in cells; host or cells: Jurkat cells
T1 sequence (Q12866 21-999): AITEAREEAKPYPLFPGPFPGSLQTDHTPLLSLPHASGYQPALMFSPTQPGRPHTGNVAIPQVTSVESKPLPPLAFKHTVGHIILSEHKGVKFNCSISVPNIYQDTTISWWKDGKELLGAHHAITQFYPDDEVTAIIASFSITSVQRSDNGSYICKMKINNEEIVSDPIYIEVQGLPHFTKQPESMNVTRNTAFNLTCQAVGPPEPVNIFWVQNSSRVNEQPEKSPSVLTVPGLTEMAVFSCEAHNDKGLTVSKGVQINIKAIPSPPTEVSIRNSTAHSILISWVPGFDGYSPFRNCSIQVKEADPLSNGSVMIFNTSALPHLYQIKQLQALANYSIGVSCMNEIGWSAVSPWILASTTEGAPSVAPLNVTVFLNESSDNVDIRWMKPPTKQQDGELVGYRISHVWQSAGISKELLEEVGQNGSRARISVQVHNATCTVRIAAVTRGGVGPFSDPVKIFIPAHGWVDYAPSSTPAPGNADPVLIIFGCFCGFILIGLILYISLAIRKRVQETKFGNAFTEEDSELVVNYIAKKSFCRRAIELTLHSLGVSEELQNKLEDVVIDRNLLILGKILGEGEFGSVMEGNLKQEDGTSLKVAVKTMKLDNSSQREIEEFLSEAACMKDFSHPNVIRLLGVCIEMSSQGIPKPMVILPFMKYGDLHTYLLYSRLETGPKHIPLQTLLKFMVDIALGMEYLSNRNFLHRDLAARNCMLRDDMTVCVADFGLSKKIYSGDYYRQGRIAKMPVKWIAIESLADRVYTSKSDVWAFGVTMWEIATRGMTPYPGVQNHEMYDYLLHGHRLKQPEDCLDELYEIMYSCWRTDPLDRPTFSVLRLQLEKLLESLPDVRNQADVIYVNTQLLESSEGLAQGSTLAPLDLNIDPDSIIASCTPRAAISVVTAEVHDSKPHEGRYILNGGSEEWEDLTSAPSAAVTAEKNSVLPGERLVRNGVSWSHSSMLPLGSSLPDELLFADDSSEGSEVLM
Put plainly: MerTk degradation in Jurkat cells (Western blot). The class given is cell-based. Conditions: 0.001-1 μM, 4 hour-incubation at 37° C. In short, it runs like this: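 MerTK degradation was read by near-infrared Western blot, normalized to actin, in BCA-quantified lysates of Jurkat cells exposed to 0.001-1 μM compound for 4 h at 37 °C.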
In general terms: A western blot detects proteins with antibodies after separation by electrophoresis.
`C[C@H](CC(F)(F)F)Nc1ncc2c(-c3ccc(CN4CCN(CCCO[C@H]5CCN(Cc6ccc7c(c6)n(C)c(=O)n7C6CCC(=O)NC6=O)C5)CC4)cc3)cn([C@H]3CC[C@H](O)CC3)c2n1` (stereo partly shown) [I-198]: the “Jurkat Max % MerTK Degradation” value is on record as “A (maximum MerTK degradation greater than 50%)”.

The same test, now with this note: Jurkat, 4 h, 0.001-1 μM, 4 hour-incubation at 37° C., read-out: Jurkat Max % MerTK Degradation.
In the case of `O=C(c1ccc(CNCc2ccc(-c3ccc4c(cnn4CC4CC4)c3)cc2)cc1)N1CC(C2CCN(Cc3ccc(-c4cn([C@H]5CC[C@H](O)CC5)c5nc(NCCC(F)(F)F)ncc45)cc3)CC2)C1` [I-181, trans-4-[5-[4-([4-[1-(4-[[([4-[1-(Cyclopropylmethyl)indazol-5-yl]phenyl]methyl)amino]methyl]benzoyl)azetidin-3-yl]piperidin-1-yl]methyl)phenyl]-2-[(3,3,3-trifluoropropyl)amino]pyrrolo[2,3-d]pyrimidin-7-yl]cyclohexan-1-ol], the Dmax was less than 20%.
On the same count and under the same terms, as for `CN1CCN(Cc2ccc(-c3ccc(CO[C@H]4CCC[C@@H]4NC(=O)c4cc(-c5cnn(CCOCCOCCCc6ccc7c(c6)n(C)c(=O)n7C6CCC(=O)NC6=O)c5)cnc4N)cc3)cc2)CC1` (stereo partly drawn) [I-182, 2-Amino-5-(1-[2-(2-[3-[1-(2,6-dioxopiperidin-3-yl)-3-methyl-2-oxo-1,3-benzodiazol-5-yl]propoxy]ethoxy)ethyl]pyrazol-4-yl]-N-[(1S,2S)-2-([4-[(4-methylpiperazin-1-yl)methyl]-[1,1-biphenyl]-4-yl]methoxy)cyclopentyl]pyridine-3-carboxamide], the figure is 20 to 50%; as for `CN1CCN(Cc2ccc(-c3ccc(CO[C@H]4CCC[C@@H]4NC(=O)c4cc(-c5cnn(CCCc6cccc7c6n(C)c(=O)n7C6CCC(=O)NC6=O)c5)cnc4N)cc3)cc2)CC1` (stereo partly drawn) [I-183, 2-Amino-5-(1-[3-[1-(2,6-dioxopiperidin-3-yl)-3-methyl-2-oxo-1,3-benzodiazol-4-yl]propyl]pyrazol-4-yl)-N-[(1S,2S)-2-([4-[(4-methylpiperazin-1-yl)methyl]-[1,1-biphenyl]-4-yl]methoxy)cyclopentyl]pyridine-3-carboxamide], less than 20%; as for `CN1CCN(Cc2ccc(-c3ccc(CO[C@H]4CCC[C@@H]4NC(=O)c4cc(-c5cnn(CCOCCOCCCc6cccc7c6n(C)c(=O)n7C6CCC(=O)NC6=O)c5)cnc4N)cc3)cc2)CC1` (stereo partly drawn) [I-184, 2-Amino-5-[1-[2-(2-[3-[1-(2,6-dioxopiperidin-3-yl)-3-methyl-2-oxo-1,3-benzodiazol-4-yl]propoxy]ethoxy)ethyl]pyrazol-4-yl]-N-[(1S,2S)-2-([4-[(4-methylpiperazin-1-yl)methyl]-[1,1-biphenyl]-4-yl]methoxy)cyclopentyl]pyridine-3-carboxamide], 20 to 50%.
For `C[C@H](Nc1ncc2c(-c3ccc(CN4CCN(CCCCOCCCc5ccc6c(c5)n(C)c(=O)n6C5CCC(=O)NC5=O)CC4)cc3)cn([C@H]3CC[C@H](O)CC3)c2n1)C(F)F` (stereo partly shown) [I-185], the Dmax is more than 50%.
Still for that read-out and setting: as for `CCC[C@H](C)Nc1ncc2c(-c3ccc(CN4CCN(C5CC(OCCc6ccc7c(c6)n(C)c(=O)n7C6CCC(=O)NC6=O)C5)CC4)cc3)cn([C@H]3CC[C@@](C)(O)CC3)c2n1` (stereo partly drawn) [I-187, 3-[3-methyl-2-oxo-5-[2-(3-[4-[(4-[2-[(2S)-pentan-2-ylamino]-7-[cis-4-hydroxy-4-methylcyclohexyl]pyrrolo[2,3-d]pyrimidin-5-yl]phenyl)methyl]piperazin-1-yl]cyclobutoxy)ethyl]-1,3-benzodiazol-1-yl]piperidine-2,6-dione; formic acid], the figure is more than 50%; as for `CCC[C@H](C)Nc1ncc2c(-c3ccc(CN4CCN(C5CC(OCCc6ccc7c(c6)n(C)c(=O)n7C6CCC(=O)NC6=O)C5)CC4)cc3)cn([C@H]3CC[C@](C)(O)CC3)c2n1` (stereo partly drawn) [I-188, 3-[3-methyl-2-oxo-5-[2-(3-[4-[(4-[2-[(2S)-pentan-2-ylamino]-7-[trans-4-hydroxy-4-methylcyclohexyl]pyrrolo[2,3-d]pyrimidin-5-yl]phenyl)methyl]piperazin-1-yl]cyclobutoxy)ethyl]-1,3-benzodiazol-1-yl]piperidine-2,6-dione; formic acid], more than 50%.
On to `CCC[C@H](C)Nc1ncc2c(-c3ccc(CN4CCN(CCCOC5CCN(Cc6ccc7c(c6)n(C)c(=O)n7C6CCC(=O)NC6=O)CC5)CC4)cc3)cn([C@H]3CC[C@H](O)CC3)c2n1` (stereo partly drawn) [I-189, 3-(3-methyl-2-oxo-5-[[4-(3-[4-[(4-[2-[(2S)-pentan-2-ylamino]-7-[trans-4-hydroxycyclohexyl]pyrrolo[2,3-d]pyrimidin-5-yl]phenyl)methyl]piperazin-1-yl]propoxy)piperidin-1-y1]methyl]-1,3-benzodiazol-1-y1)piperidine-2,6-dione; formic acid], for which the Dmax was more than 50%.
On the same count and under the same terms, under `Cc1ncsc1-c1ccc(CNC(=O)[C@@H]2C[C@@H](O)CN2C(=O)[C@@H](NC(=O)C2(F)CC2)C(C)(C)C)c(OCCOCCOCCOCCN2CCN(Cc3ccc(-c4cn([C@H]5CC[C@H](O)CC5)c5nc(NCCC(F)(F)F)ncc45)cc3)CC2)c1` [I-190] stands more than 50%.
Take `Cc1cc(CNCc2ccc(C(=O)N3CC(C4CCN(Cc5ccc(-c6cn([C@H]7CC[C@H](O)CC7)c7nc(NCCC(F)(F)F)ncc67)cc5)CC4)C3)cc2)ccc1-c1ccc2nn(CC3CC3)cc2c1` [I-191, trans-4-[5-[4-([4-[1-(4-[[([4-[2-(cyclopropylmethyl)indazol-5-yl]-3-methylphenyl]methyl)amino]methyl]benzoyl)azetidin-3-yl]piperidin-1-yl]methyl)phenyl]-2-[(3,3,3-trifluoropropyl)amino]pyrrolo[2,3-d]pyrimidin-7-yl]cyclohexan-1-ol]: the Dmax was less than 20%.
Still for that read-out and setting: as for `C[C@H](CC(F)(F)F)Nc1ncc2c(-c3ccc(CN4CCN(C5CC(OCCc6ccc7c(c6)n(C)c(=O)n7C6CCC(=O)NC6=O)C5)CC4)cc3)cn([C@H]3CC[C@H](O)CC3)c2n1` (stereo partly drawn) [I-194, 3-[3-methyl-2-oxo-5-[2-(3-[4-[(4-[7-[trans-4-hydroxycyclohexy1]-2-[[(2R)-4,4,4-trifluorobutan-2-yl]amino]pyrrolo[2,3-d]pyrimidin-5-yl]phenyl)methyl]piperazin-1-yl]cyclobutoxy)ethyl]-1,3-benzodiazol-1-yl]piperidine-2,6-dione], the figure is more than 50%.
For `C[C@@H](CC(F)(F)F)Nc1ncc2c(-c3ccc(CN4CCN(C5CC(OCCc6ccc7c(c6)n(C)c(=O)n7C6CCC(=O)NC6=O)C5)CC4)cc3)cn([C@H]3CC[C@H](O)CC3)c2n1` (stereo partly drawn) [I-195, 3-[3-methyl-2-oxo-5-[2-(3-[4-[(4-[7-[trans-4-hydroxycyclohexy1]-2-[[(2S)-4,4,4-trifluorobutan-2-yl]amino]pyrrolo[2,3-d]pyrimidin-5-yl]phenyl)methyl]piperazin-1-yl]cyclobutoxy)ethyl]-1,3-benzodiazol-1-yl]piperidine-2,6-dione], the Dmax lay within 20 to 50%.
The same measure, in the same setting: under `C[C@H](CC(F)(F)F)Nc1ncc2c(-c3ccc(CN4CCN(CCCOC5CCN(Cc6ccc7c(c6)n(C)c(=O)n7C6CCC(=O)NC6=O)CC5)CC4)cc3)cn([C@H]3CC[C@H](O)CC3)c2n1` (stereo partly drawn) [I-196, 3-(3-methyl-2-oxo-5-[[4-(3-[4-[(4-[7-[trans-4-hydroxycyclohexyl]-2-[[(2R)-4,4,4-trifluorobutan-2-yl]amino]pyrrolo[2,3-d]pyrimidin-5-y1]phenyl)methyl]piperazin-1-yl]propoxy)piperidin-1-yl]methyl]-1,3-benzodiazol-1-yl)piperidine-2,6-dione] stands more than 50%; under `C[C@@H](CC(F)(F)F)Nc1ncc2c(-c3ccc(CN4CCN(CCCOC5CCN(Cc6ccc7c(c6)n(C)c(=O)n7C6CCC(=O)NC6=O)CC5)CC4)cc3)cn([C@H]3CC[C@H](O)CC3)c2n1` (stereo partly drawn) [I-197, 3-(3-methyl-2-oxo-5-[[4-(3-[4-[(4-[7-[trans-4-hydroxycyclohexyl]-2-[[(2S)-4,4,4-trifluorobutan-2-yl]amino]pyrrolo[2,3-d]pyrimidin-5-yl]phenyl)methyl]piperazin-1-yl]propoxy)piperidin-1-yl]methyl]-1,3-benzodiazol-1-y1)piperidine-2,6-dione], more than 50%.
Same read-out and setting: under `C[C@@H](CC(F)(F)F)Nc1ncc2c(-c3ccc(CN4CCN(CCCO[C@H]5CCN(Cc6ccc7c(c6)n(C)c(=O)n7C6CCC(=O)NC6=O)C5)CC4)cc3)cn([C@H]3CC[C@H](O)CC3)c2n1` (stereo partly drawn) [I-199, 3-(3-methyl-2-oxo-5-[[(3S)-3-(3-[4-[(4-[7-[trans-4-hydroxycyclohexy1]-2-[[(2S)-4,4,4-trifluorobutan-2-yl]amino]pyrrolo[2,3-d]pyrimidin-5-yl]phenyl)methyl]piperazin-1-yl]propoxy)pyrrolidin-1-yl]methyl]-1,3-benzodiazol-1-yl)piperidine-2,6-dione] stands 20 to 50%.
